Data as given in patent publication US20140336218A1, “ARFORMOTEROL AND TIOTROPIUM COMPOSITIONS AND METHODS FOR USE” (priority 2008, published 2014).

Assays:
[1] = test system: COPD patients; test: Rescue medication (levalbuterol MDI) use in 2-week clinical trial; format: in vivo, human
Description: (§1) This was a 2-week, prospective, multi-center (34 sites), randomized, modified blind, double dummy, parallel group study designed to evaluate the efficacy and safety of the combination of arformoterol 15 μg BID and tiotropium 18 μg QD (dosed sequentially) versus the individual mono-therapies in the treatment of COPD patients. The study was conducted according to the principles established by the Declaration of Helsinki (see, e.g., World Medical Association Declaration of Helsinki. Recommendations guiding physicians in biomedical research involving human subjects. JAMA 1997; 277:925-926.). Appropriate Institutional Review boards approved the protocol and written informed consent was obtained from the patients.
During the study period, the use of LABAs or long-or short-acting anticholinergic bronchodilators (except for the study medication) was prohibited. Use of oral and inhaled corticosteroids was allowed as long as patients were on a stable dosing regimen for at least 14 days prior to study entry that was maintained throughout the study. Patients were required to withhold oral corticosteroids for at least 24 hours prior to pulmonary function testing. Leukotriene modifiers and methylxanthines were not allowed for at least 7-days prior to study entry. Levalbuterol MDI (Xopenex® Sepracor Inc., Marlborough, Mass.) was supplied and used as-needed for rescue medications for acute bronchospasm and acute treatment of COPD symptoms throughout the trial. Patients were instructed to withhold the use of rescue medication for ≧6 hours prior to each clinic visit.
At the screening visit, baseline values were obtained for COPD symptoms, Modified Medical Research Council (MMRC) Dyspnea Scale, heart rate, vital signs, and pulmonary function tests. Medical event calendars and medication logs that were to be completed daily, and rescue medication were also dispensed. The medication logs were used to assess compliance by monitoring the number of UDV/DPI doses taken.
(§2) Eligible patients were randomized to receive one of three treatments for 14 days: nebulized arformoterol 15 μg (Brovana®, Sepracor Inc., Marlborough, Mass.) BID and placebo DPI QD, nebulized placebo BID and tiotropium 18 μg (Spriva® HandiHaler® Boehringer Ingelheim, Ridgefield, Conn.) DPI QD, or nebulized arformoterol 15 μg BID and tiotropium 18 μg DPI QD. The nebulized drug was administered first using the PARI LC Plus® nebulizer driven by the Duraneb 3000® compressor (Pari: Pari Respiratory Equipment Inc., Midlothian, Va.) at a flow rate of 3.3 L/minute followed (within 5 minutes) by the DPI administration (HandiHaler®). The tiotropium and placebo DPI capsules were identical in size and shape but differed in color.

[2] = test system: COPD patients; test: Spirometry (FEV1, FVC) in 2-week randomized, double dummy, parallel group clinical trial; format: in vivo, human; conditions: for Difference between combined therapy and mono-therapies in change in FEV1AUC0-24, LS mean / Difference between combined therapy and mono-therapies in change in trough FEV1, LS mean / Difference between combined therapy and mono-therapies in peak change in FEV1 over 12 hours, LS mean / Difference between combined therapy and mono-therapies in peak change in FVC over 12 hours, LS mean / Change in trough FEV1, mean (SD) / Difference between combined therapy and mono-therapies in trough FEV1, LS mean: week 2; for Change in trough FEV1, mean (SD): trough = 24 hour time point after morning dose; for mean improvement in peak FVC: from baseline after 2 weeks of treatment
Description: as §1
All patients had non-asthmatic COPD (including emphysema and/or chronic bronchitis). […] They also were required to have a pre-bronchodilator baseline pulmonary function of FEV1>0.7 L, FEV1/FVC ratio of ≦70%, and FEV1≦65% predicted. Patients were excluded if they had life-threatening or unstable respiratory status within 30 days of the screening visit. Patients who changed their prescribed dose or type of COPD medication within 14 days prior to screening or who had ever used tiotropium bromide inhalation powder were excluded.
as §2
At week 0 and week 2, medical event calendars and blood samples were collected and vital signs and heart measurements analyzed. At week 0, spirometry was performed pre-morning dose, immediately (within 5 minutes) and at 30 minutes, 1, 2, 4, 6, 8, 10, and 12 hours post-first dose. After the 12-hour pulmonary function test patients self-administered the evening dose of study medication. At week 2, serial spirometry was also performed as at week 0, as well as immediately (within 5 minutes) following the evening dose (administered 12 hours after the morning dose) and 12.5, 13, 14, 16, 23, and 24 hours post-morning dose. Inspiratory capacity was evaluated pre-dose and at 2 hours post-morning dose at week 0, and pre-dose and 2, 11, 14, and 24 hours post-morning dose at week 2. All inspiratory capacity measurements were the mean of acceptable inspiratory capacity maneuvers, two of which were reproducible. Prior to an inspiratory capacity maneuver a patient had to have a stable expiratory level for about 10 breaths. Once the stable level was achieved, at the end of exhalation of a normal breath the patient was asked to make a steady and full inhalation at normal inspiratory flow rates until the lungs were completely full, and then to exhale at a normal rate.
All pulmonary function values used were the highest among the three acceptable maneuvers. The Investigator ensured that all spirometry was performed in accordance with the American Thoracic Society/European Respiratory Society Standardisation of Spirometry guidelines (see, e.g., Miller M R, Hankinson J, Brusasco V, Burgos F, Casaburi R, Coates A, et al. Standardisation of spirometry. Eur Respir J 2005; 26:319-338; herein incorporated in its entirety by reference). Centralized over-reading of spirometry and inspiratory capacity pulmonary function measures were used for quality control.

[3] = test system: COPD patients; test: Adverse events in 2-week clinical trial; conditions: for Any adverse event, n (%) / COPD exacerbations / Discontinued due to adverse events, n (%) / Overall cardiovascular adverse events, n (%) / Serious adverse events, n (%): ITT, 2 weeks of treatment
Description: as §1, §2
Descriptive statistics were calculated by treatment for baseline characteristics and each efficacy parameter. Adverse events were summarized using counts and percentages. All adverse events were coded using MedDRA (Medical Dictionary for Regulatory Activities (see, e.g., MedDRA and MSSO. The medical dictionary for regulatory activities 2008). A COPD exacerbation was pre-defined as an increase in symptoms that necessitated any change in baseline medication other than bronchodilators (e.g. anti-inflammatory agents, antibiotics, supplemental oxygen therapy, etc.) or caused the patient to require additional medical attention (hospitalization, emergency room visit, etc.).

[4] = <50% percent predicted FEV1, changes in levalbuterol MDI use at week 2
[5] = ITT, week 2, change from baseline, levalbuterol rescue
[6] = ≧50% percent predicted FEV1, changes in levalbuterol MDI use at week 2
[7] = ITT, change from baseline at week 2
[8] = ITT, change from baseline at week 2, time normalized
[9] = ITT, combined therapy versus the mono-therapy
[10] = baseline percent predicted FEV1 <50%, combined versus the mono-therapy
[11] = baseline percent predicted FEV1 <50%, week 2 from study baseline
[12] = baseline percent predicted FEV1 <50%, week 2 from study baseline (pre-dose week 0)
[13] = baseline percent predicted FEV1 ≧50%, combined versus the mono-therapy
[14] = baseline percent predicted FEV1 ≧50%, week 2 from study baseline
[15] = baseline percent predicted FEV1 ≧50%, week 2 from study baseline (pre-dose week 0)

## COc1ccc(C[C@@H](C)NC[C@H](O)c2ccc(O)c(NC=O)c2)cc1 [Arformoterol]
[1]; [4]
  Number of actuations per day, mean (SD): −2.1 (2.3) actuations per day
  Used levalbuterol, n (%): 45 (95.7) n (%)
[1]; ITT, week 2
  Used levalbuterol, n (%): 40 (52.6) n (%)
[1]; [5]
  Number of actuations per day, mean (SD): −1.8 (2.2) actuations per day
  Number of days per week, mean (SD): −2.1 (2.6) days per week
[1]; [6]
  Number of actuations per day, mean (SD): −1.3 (2.0) actuations per day
  Used levalbuterol, n (%): 26 (90)^ n (%)
[2]; 2 hours after evening dose
  mean FEV1 improvement 2-hours after the evening dose: ~182 mL
[2]; 2 hours after morning dose
  mean FEV1 improvement 2-hours after the morning dose: approximately 213 mL
[2]; [7]
  Peak Change in FEV1 over 12 hours, mean (SD): 0.27 (0.21) L
  Peak change in FVC over 12 hours, mean (SD): 0.48 (0.37) L
[2]; [8]
  Change in FEV1AUC0-24, mean (SD): 0.10 (0.21) L
[2]; [9]
  Difference between combined therapy and mono-therapies in change in FEV1AUC0-24, LS mean: 0.12 L
  Difference between combined therapy and mono-therapies in change in trough FEV1, LS mean: 0.07 L
  Difference between combined therapy and mono-therapies in peak change in FEV1 over 12 hours, LS mean: 0.11 L
  Difference between combined therapy and mono-therapies in peak change in FVC over 12 hours, LS mean: 0.12 L
[2]; ITT
  Change in trough FEV1, mean (SD): 0.09 (0.23) L
[2]; [10]
  Difference between combined therapy and mono-therapies in change in FEV1AUC0-24, LS mean: 0.11 L
  Difference between combined therapy and mono-therapies in peak change in FEV1 over 12 hours, LS mean: 0.11 L
  Difference between combined therapy and mono-therapies in peak change in FVC over 12 hours, LS mean: 0.15 L
  Difference between combined therapy and mono-therapies in trough FEV1, LS mean: 0.08 L
[2]; [11]
  Peak Change in FEV1 over 12 hours, mean (SD): 0.31 (0.23) L
  Peak change in FVC over 12 hours, mean (SD): 0.56 (0.41) L
  Trough FEV1 (change in FEV1 at 24 hours post-dose), mean (SD): 0.13 (0.23) L
[2]; [12]
  Change in FEV1AUC0-24, mean (SD): 0.15 (0.22) L
[2]; [13]
  Difference between combined therapy and mono-therapies in change in FEV1AUC0-24, LS mean: 0.14 L
  Difference between combined therapy and mono-therapies in peak change in FEV1 over 12 hours, LS mean: 0.10 L
  Difference between combined therapy and mono-therapies in peak change in FVC over 12 hours, LS mean: 0.08 L
  Difference between combined therapy and mono-therapies in trough FEV1, LS mean: 0.05 L
[2]; [14]
  Peak Change in FEV1 over 12 hours, mean (SD): 0.22 (0.17) L
  Peak change in FVC over 12 hours, mean (SD): 0.34 (0.25) L
  Trough FEV1 (change in FEV1 at 24 hours post-dose), mean (SD): 0.02 (0.21) L
[2]; [15]
  Change in FEV1AUC0-24, mean (SD): 0.03 (0.19) L
[2]
  mean improvement in peak FVC: 48 mL
  LS mean (±SE) peak improvement in FEV1 from visit pre-dose: 0.19 L
[3]
  Any adverse event, n (%): 19 (25.0) n (%)
  COPD exacerbations: 3 (3.9) n (%)
  Discontinued due to adverse events, n (%): 2 (2.6) n (%)
  Overall cardiovascular adverse events, n (%): 2 (2.6) n (%)
  Serious adverse events, n (%): 1 (1.3) n (%)
[3]; small intestinal obstruction
  patients reporting a serious adverse event: one

## C[N+]1(C)[C@@H]2C[C@@H](OC(=O)C(O)(c3cccs3)c3cccs3)C[C@H]1[C@@H]1O[C@@H]12 [Tiotropium]
[1]; [4]
  Number of actuations per day, mean (SD): −1.8 (3.3) actuations per day
  Used levalbuterol, n (%): 48 (94.1) n (%)
[1]; ITT, week 2
  Used levalbuterol, n (%): 38 (47.5) n (%)
[1]; [5]
  Number of actuations per day, mean (SD): −1.8 (2.8) actuations per day
  Number of days per week, mean (SD): −2.2 (2.7) days per week
[1]; [6]
  Number of actuations per day, mean (SD): −1.9 (1.8) actuations per day
  Used levalbuterol, n (%): 27 (96.4) n (%)
[2]; [7]
  Peak Change in FEV1 over 12 hours, mean (SD): 0.27 (0.23) L
  Peak change in FVC over 12 hours, mean (SD): 0.40 (0.34) L
[2]; [8]
  Change in FEV1AUC0-24, mean (SD): 0.08 (0.20) L
[2]; [9]
  Difference between combined therapy and mono-therapies in change in FEV1AUC0-24, LS mean: 0.14 L
  Difference between combined therapy and mono-therapies in change in trough FEV1, LS mean: 0.07 L
  Difference between combined therapy and mono-therapies in peak change in FEV1 over 12 hours, LS mean: 0.11 L
  Difference between combined therapy and mono-therapies in peak change in FVC over 12 hours, LS mean: 0.20 L
[2]; ITT
  Change in trough FEV1, mean (SD): 0.08 (0.21) L
[2]; [10]
  Difference between combined therapy and mono-therapies in change in FEV1AUC0-24, LS mean: 0.16 L
  Difference between combined therapy and mono-therapies in peak change in FEV1 over 12 hours, LS mean: 0.14 L
  Difference between combined therapy and mono-therapies in peak change in FVC over 12 hours, LS mean: 0.28 L
  Difference between combined therapy and mono-therapies in trough FEV1, LS mean: 0.10 L
[2]; [11]
  Peak Change in FEV1 over 12 hours, mean (SD): 0.29 (0.26) L
  Peak change in FVC over 12 hours, mean (SD): 0.43 (0.37) L
  Trough FEV1 (change in FEV1 at 24 hours post-dose), mean (SD): 0.11 (0.22) L
[2]; [12]
  Change in FEV1AUC0-24, mean (SD): 0.10 (0.22) L
[2]; [13]
  Difference between combined therapy and mono-therapies in change in FEV1AUC0-24, LS mean: 0.12 L
  Difference between combined therapy and mono-therapies in peak change in FEV1 over 12 hours, LS mean: 0.09 L
  Difference between combined therapy and mono-therapies in peak change in FVC over 12 hours, LS mean: 0.08 L
  Difference between combined therapy and mono-therapies in trough FEV1, LS mean: 0.04 L
[2]; [14]
  Peak Change in FEV1 over 12 hours, mean (SD): 0.23 (0.16) L
  Peak change in FVC over 12 hours, mean (SD): 0.34 (0.28) L
  Trough FEV1 (change in FEV1 at 24 hours post-dose), mean (SD): 0.03 (0.17) L
[2]; [15]
  Change in FEV1AUC0-24, mean (SD): 0.05 (0.14) L
[2]
  mean improvement in peak FVC: 40 mL
  LS mean (±SE) peak improvement in FEV1 from visit pre-dose: 0.19 L
[3]
  Any adverse event, n (%): 22 (27.5) n (%)
  COPD exacerbations: 0 n (%)
  Discontinued due to adverse events, n (%): 1 (1.3) n (%)
  Overall cardiovascular adverse events, n (%): 1 (1.3) n (%)
  Serious adverse events, n (%): 0 n (%)
